Measured values from patent US20060073528A1, “Measurement methods” (priority 2004, published 2006).
Several values for one entry are separate records, joined by “and”; a condition that tells them apart may be missing. Identical values can stand only once. Like-named read-outs stand apart in the source and are kept apart here.

Columns and labels:
[1] = Sample stability of DM1-related impurities with DS-DM1-deJ591 in the autosampler (Hisep RP-HPLC)
Procedure: The sample was analyzed at times t=0 h, 12 h, and 24 h. Sample stability was determined by comparing the area percent (area %) values of the stored sample to that of the initially-prepared solution (t=0 h).

[2] = Lyophilized standard stocks reconstituted and analyzed by Hisep RP-HPLC (monomer to dimer conversion); assay type: physicochemical; conditions: for Dimer area observed / Monomer area observed: single injections
Procedure: All vials contained a total of 15 nmol. Two vials of each standard were reconstituted by adding 150 μL of 50% acetonitrile/0.01% TFA to make a 100 μM stock solution; the remaining vials were reconstituted with 300 μL to make 50 μM stocks. The stocks were further diluted to the working concentration of 5 μm and analyzed. […] The stability of these standards were monitored over time.

[3] = 50 μM stock - lyophilized, average per vial
[4] = 100 μM stock - lyophilized, average per vial
[5] = 100 μM stock - lyophilized, vials 1 and 2

| SMILES | Average peak area ([1]; t = 0 h) | Average peak area ([1]; t = 12 h) | Average peak area ([1]; t = 24 h) | DM1 monomer to dimer conversion after lyophilization ([2]; 15 nmol vials lyophilized, reconstituted in 50% acetonitrile/0.01% TFA to 100 μM or 50 μM, diluted to 5 μM) | Dimer area observed, Average [2, 3] | Monomer area observed, Average [2, 3] | Dimer area observed ([2]; 50 μM stock - lyophilized) | Monomer area observed ([2]; 50 μM stock - lyophilized, vials 1 and 2) | Dimer area observed, Average [2, 4] | Monomer area observed, Average [2, 4] | Dimer area observed [2, 5] | Monomer area observed [2, 5] | Monomer area observed, Average ([2]; 100 μM stock - untreated) | Monomer area observed ([2]; 100 μM stock - untreated) | % remaining area counts relative to t = 0 h (12 h) [%] | % remaining area counts relative to t = 0 h (24 h) [%] |
| --- | --- | --- | --- | --- | --- | --- | --- | --- | --- | --- | --- | --- | --- | --- | --- | --- |
| COc1cc2cc(c1Cl)N(C)C(=O)C[C@H](OC(=O)[C@H](C)N(C)C(=O)CCS)[C@]1(C)O[C@H]1[C@H](C)[C@@H]1C[C@@](O)(NC(=O)O1)[C@H](OC)/C=C/C=C(\C)C2 [DM1 monomer] | 223667 | 217293 | 214265 | significant DM1 monomer→dimer conversion | 10669 | 476235 and 412633 | 10097 and 10809 and 11100 | 476970 and 475075 and 476660 and 415292 and 411974 and 410632 | 10086 and 10158 | 391081 and 417523 | 10508 and 8635 and 11114 and 10029 and 10666 and 9780 | 392043 and 391526 and 389675 and 418902 and 418204 and 415463 | 459843 | 459407 and 460238 and 459885 |  |  |
| COc1cc2cc(c1Cl)N(C)C(=O)CC(OC(=O)C(C)N(C)CC(=O)CCSSC(C)CCC(=O)O)C1(C)OC1C(C)C1CC(O)(NC(=O)O1)C(OC)C=CC=C(C)C2 (stereo not shown) [DM1-TPA adduct, DM1-thiopentanoic acid adduct] | 246302 | 245410 | 245126 |  |  |  |  |  |  |  |  |  |  |  |  |  |
| CC(CCC(=O)O)SSc1ccccn1 (stereo not shown) [PPA, 4-(2-pyridyldithio) pentanoic acid] | 15881 | 15377 | 15595 |  |  |  |  |  |  |  |  |  |  |  | 96.83 | 98.20 |
| S=c1cccc[nH]1 [mercaptopyridine] | 15446 | 15654 | 15620 |  |  |  |  |  |  |  |  |  |  |  |  |  |
